Laboratory results reported in patent US20220401439A1, “INTRANASAL PHARMACEUTICAL COMPOSITIONS OF CGRP INHIBITORS” (Biohaven Pharmaceutical Holding Company Ltd., priority 2019, published 2022).

Assay: logD of drug substance
Format: physicochemical
Details: mono-hydrochloride salt form

With Cc1cc(C[C@@H](NC(=O)N2CCC(c3cc4ccccc4[nH]c3=O)CC2)C(=O)N2CCN(C3CCN(C)CC3)CC2)cc2cn[nH]c12 [Zavegepant, (R)—N-(3-(7-methyl-1H-indazol-5-yl)-1-(4-(1-methylpiperidin-4-yl)piperazin-1-yl)-1-oxopropan-2-yl)-4-(2-oxo-1,2-dihydroquinolin-3-yl)piperidine-1-carboxamide] the logD was 1.21.
